Source: ChEMBL document CHEMBL1132991, “Conformational selection of inhibitors and substrates by proteolytic enzymes: implications for drug design and polypeptide processing” (J Med Chem, 2000)

Molecular target: Human immunodeficiency virus type 1 protease (Human immunodeficiency virus 1, UniProt Q72874)
Assay: binding affinity towards HIV-1 Protease enzyme

For `CC[C@H](C)[C@@H]1NC(=O)[C@@H](C(N)C[C@@H](O)C(Cc2ccccc2)NC(=O)OC(C)(C)C)Cc2ccc(cc2)OCCCNC1=O` (stereo partly drawn), the Ki was 4 nM.
With `CC[C@@H](C)[C@H](NC(=O)[C@H](Cc1ccccc1)NC(=O)[C@H](Cc1ccccc1)NC(=O)[C@@H](NC(=O)[C@H](CC(C)C)NC(C)=O)C(C)C)C(=O)N[C@H](C(N)=O)C(C)C` the Ki was 60000 nM.
With `CC[C@H](C)[C@@H]1NC(=O)[C@@H](NC(=O)[C@@H]2Cc3ccc(cc3)OCCCCC(=O)N[C@@H](C(C)C)C(=O)N2)Cc2ccc(cc2)OCCCNC1=O` the Ki was 800 nM.
`CC(C)C[C@@H](NC(=O)[C@H](O)COS(=O)(=O)O)C(=O)N[C@@H]1C(=O)N[C@@H](CCCNC(=N)N)C(=O)N[C@H]2CC[C@H](O)N(C2=O)[C@@H](CC(C)C)C(=O)N(C)[C@H](Cc2ccc(O)cc2)C(=O)N[C@H](C(C)C)C(=O)O[C@@H]1C` [PROTEOLYTIC ENZYME INHIBITOR] was tested, and the Ki was 1 nM.
`N=C(N)NCCC[C@H]1NC(=O)[C@@H]2CCCN2C(=O)[C@@H](NC=O)CNC(=O)/C=C/C(Cc2ccc(O)cc2)NC(=O)[C@@H](Cc2ccccc2)NC(=O)C1=O` (stereo partly drawn) was tested, and the Ki was 10 nM.
`CC[C@H](C)[C@@H]1NC(=O)[C@@H](C(N)C[C@@H](O)[C@@H]2Cc3ccc(cc3)OCCCCC(=O)N[C@@H](C(C)C)C(=O)N2)Cc2ccc(cc2)OCCCNC1=O` (stereo partly drawn) gave a Ki of 3 nM.
In the case of `CC[C@H](C)[C@H](NC(=O)[C@H](Cc1ccccc1)NC[C@H](O)[C@@H]1Cc2ccc(cc2)OCCCC(=O)N[C@@H](CC(N)=O)C(=O)N1)C(=O)N[C@H](C(N)=O)C(C)C`, the Ki is reported as 12 nM.
For `CC(C)C[C@H](CC(=O)NO)C(=O)N[C@H]1Cc2cn(c3ccccc23)CCCCCCNC1=O`, the Ki was 1 nM.
